Common to all, as to type: cell-based
One test relates to Phospho-Rb (Ser807/811). Put plainly: Phospho-Retinoblastoma (pRB) Cellular Assay. As to conditions: Homo sapiens, OVCAR-3, NIH OVCAR3 cells, 24 hours; for IC50: concentration giving 50% response; for Emax: maximum response, reference compound at 10 μM = 100%, read-out: pRB Ymax. The method, then:
Phospho-Retinoblastoma (pRB) Cellular Assay
NIH OVCAR3 (HTB-161, American Type Culture Collection, Manassas VA) cells were grown up to passage 10 in culture media made up of RPMI (11835-030 Gibco, Grand Island NY), 20% HI FBS (16140-071, Gibco, Grand Island NY), and 0.01 mg/mL insulin from bovine pancreas (I6634-1G, Sigma Aldrich, St. Louis, MO).
The cells were seeded in a 384-well CulturPlate (6007688, Perkin Elmer, Waltham MA) at a density of 10,000 cells/well in 20 μL of the above culture media and incubated overnight at 37° C. and 5% CO2.
The next day, cells were treated using an Echo 650 (Beckman Coulter, Indianapolis IN) acoustic dispenser with 40 nL of compounds dissolved in DMSO at the appropriate serial dilutions (10 mM to […]). Cells were then incubated for 24 hours as above.
After 24 hours elapsed, media was removed from each well and shortly after 20 μL of the following mix was added: 12 μL deionized water, 4 μL lysis buffer, 4 μL of reconstituted antibody mix, and 1:100 phosphatase inhibitor. These components belong to the Phospho-Rb (Ser807/811) Cellular Kit (64RBS807PEY, Perkin Elmer, Waltham MA).
Plates were sealed and incubated away from light at room temperature for at least 4 hours before reading them on an EnVision plate reader (Perkin Elmer, Waltham MA) according to the kit manufacturer's protocol. The reference compound, N-(5-{[(5-tert-butyl-1,3-oxazol-2-yl)methyl]sulfanyl}-1,3-thiazol-2-yl)piperidine-4-carboxamide, at 10 μM was used to define 100% response. Assay results for each compound were reported as IC50, the concentration giving 50% response, and Ymax, the maximum response observed with the compound.

For the next test, the target named is GSPT1 (Homo sapiens, UniProt P15170+Q96SW2). Put plainly: GSPT1 Cellular Degradation Assay (DF15-GSPT1-ePL). As to conditions: DF15-GSPT1-ePL cells, 20 hours. Further details: expressed in transfected cells. The text has this:
DF15-GSPT1-ePL was used for intracellular GSPT1 protein degradation detection in form of chemiluminescent signal, which was built on a human DF15 cell line (CVCL_Y429) with conditional co-expression of chimeric GSPT1 (target) and ePL/donor (enhanced ProLabel® by DiscoverX for enzyme fragment complementation with donor-acceptor pairing). The cells used the culture medium in two arrangements for assay and maintenance. During assay, it used Core-RPMI 1640 medium with 10% Fetal Bovine Serum (Heat Inactivated) and 1× Penicillin/Streptomycin; and during passage maintenance, used added ingredients: 0.1 mM NEAA, 1 mM sodium pyruvate, 25 mM Hepes, 0.1% Pluronic F-68, 1× Glutamin, 4 μg/mL Blasticidin (selection agent). Detection was performed on a 1536 well tissue culture plate (Corning #3727) with cells seeded in 3.5 μL core-RPMI 1640 at density of 0.25 million/mL after the pre-titrated test compounds in DMSO on ECHO plate were dispensed onto the assay plate by use of ECHO (liquid handing system via acoustic energy from Labcyte). Assay incubation lasted 20 hours in 37° C. incubator with 5% CO2; then followed by 30 minutes of plate-cooling at room temperature; then detection-reagent-mix was added in 3.5 μL/well with pre-defined proportion of enzyme acceptor, substrate, and lysis buffer. Plate signal reading for luminescence on an EnVision plate reader (PerkinElmer) was conducted after 60 minutes of former step at room temperature. Raw data was collected and processed with Dotmatics (data analyzer) for test compound's potency values. The reference compound, 3-[5-(3,6-dimethoxyisoquinolin-1-yl)-1-oxo-2,3-dihydro-1H-isoindol-2-yl]piperidine-2,6-dione, at […] was used to define 75% response. Assay results for each compound were reported as DC50, the concentration giving 50% response, and Dmax, the maximum response observed with the compound.

In a further test the target is Cyclin E1 (Homo sapiens, UniProt P24864+Q96SW2). In words: Cyclin E1 Cellular Degradation Assay (MSD). Also on record: endogenous in cells; host or cells: OVCAR3. The settings on record: for DC50 / Dmax: Cyclin E1 cellular degradation; for Dmax: maximum degradation; for Ratio of GSPT1 DC50/Cyclin E1 DC50: selectivity for degradation of Cyclin E1 over GSPT1. Here is the method:
Culturing cells: On Day 0, OVCAR3 cells were plated at 15,000 cells/well in 40 μL of culture medium (RPMI1640, 20% FBS, 0.01 insulin, 1% Anti/Anti) in a 384 well cell culture plate. Cell cultures were incubated for 24 hours at 37° C. and 5% CO2.
Coating MSD plates: On Day 1, rabbit anti-CCNE1 antibody (Abcam ab33911, 1 μg/mL in DPBS, […]) was dispensed to a Meso Scale Discovery plate (MSD L21XA). The MSD plate was spun briefly to ensure the solution coated the bottom of the well and incubated overnight at 4° C. On Day 2, the plate was washed 3 times with TBS +0.2% TWEEN, blocked for 1 hour with 3% MSD Blocker A (MSD R93AA-1, 30 μL/well), then washed again 3 times with TBS+0.2% TWEEN.
Treating and lysing cells: On Day 1, compounds of interest were dispensed into the cell cultures by acoustic dispensing technology. The cell cultures were then spun at 400 g for 4 minutes to disperse the compounds and incubated at 37° C. and 5% CO2 for 24 hours. After incubation, 40 μL of DPBS was added to the cell cultures to dilute the media. All liquid was gently discarded and immediately replaced with 30 μL of lysis buffer (MSD Tris Lysis buffer (MSD R60TX-2), Halt Protease inhibitor (ThermoFisher 78438), Phosphatase Inhibitor II (Sigma-Aldrich P5726), Phosphatase Inhibitor III (Sigma-Aldrich P0044), 0.02M PMSF (Sigma-Aldrich 7626), 0.1% SDS (VWR E719-100ML)). The plate was then sealed, shaken at 300 rpm at room temperature for 5 minutes, and freeze-thawed for optimum cell lysis.
Collecting data: After thawing, 25 μL of lysate was transferred to a coated MSD plate. The plate was then sealed and shaken at 300 rpm overnight in 4° C. On Day 3, the MSD plate was washed 3 times with TBS+0.2% TWEEN. Mouse anti-CCNE1 antibody (Abcam ab238081, 0.5 μg/mL in 1% MSD Blocker A, 10 μL/well) dispensed to the MSD plate, which was then sealed and shaken at room temperature for 3 hours. After the first antibody incubation, the plate was washed 3 times with TBS+0.2% TWEEN, then goat anti-mouse Sulfo-Tag antibody (MSD R32AC, 1 μg/mL in 1% MSD Blocker A, 10 μL/well) was dispensed to the MSD plate. The plate was sealed again and shaken at room temperature for 1 hour, then washed 3 times with TBS+0.2% TWEEN. After the final wash, 35 μL of 1× Read Buffer (MSD R92TC-1) was added to each well and the data was captured using the MSD plate reader. The reference compound, [2-(2,6-dioxopiperidin-3-yl)-4-methoxy-3-oxo-2,3-dihydro-1H-isoindol-5-yl]methyl N-[4-(3,4-difluorophenoxy)phenyl]carbamate, at […] was used to define […]. Assay results for each compound were reported as DC50, the concentration giving 50% response, and Dmax, the maximum response observed with the compound.

Structures are written as SMILES. A value given as a limit tells only on which side of the number the result lay.

Chain of Cyclin E1 (P24864 whole entry): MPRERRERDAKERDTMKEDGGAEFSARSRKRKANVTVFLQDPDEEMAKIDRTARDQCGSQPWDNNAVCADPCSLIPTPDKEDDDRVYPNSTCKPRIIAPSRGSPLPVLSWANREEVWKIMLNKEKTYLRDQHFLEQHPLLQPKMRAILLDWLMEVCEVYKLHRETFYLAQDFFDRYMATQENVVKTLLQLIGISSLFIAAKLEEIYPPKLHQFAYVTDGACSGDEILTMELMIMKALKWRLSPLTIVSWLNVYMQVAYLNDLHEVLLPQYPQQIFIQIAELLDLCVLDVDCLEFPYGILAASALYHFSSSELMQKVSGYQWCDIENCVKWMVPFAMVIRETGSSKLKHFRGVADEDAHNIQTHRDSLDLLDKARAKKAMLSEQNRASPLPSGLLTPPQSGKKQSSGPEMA
Chain of Cyclin E1 (Q96SW2 whole entry): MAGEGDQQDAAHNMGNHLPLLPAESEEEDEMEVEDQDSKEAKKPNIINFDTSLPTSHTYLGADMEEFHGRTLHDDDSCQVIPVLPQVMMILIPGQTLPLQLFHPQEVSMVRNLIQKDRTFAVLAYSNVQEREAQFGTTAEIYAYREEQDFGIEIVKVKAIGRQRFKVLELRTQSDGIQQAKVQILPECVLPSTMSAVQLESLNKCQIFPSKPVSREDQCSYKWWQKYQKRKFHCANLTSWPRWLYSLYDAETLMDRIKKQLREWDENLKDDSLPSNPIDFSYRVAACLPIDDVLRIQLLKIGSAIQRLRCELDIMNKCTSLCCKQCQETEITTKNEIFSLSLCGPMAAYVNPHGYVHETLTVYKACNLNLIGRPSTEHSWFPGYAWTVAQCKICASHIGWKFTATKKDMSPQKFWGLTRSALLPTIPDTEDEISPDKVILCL
Chain of Cyclin E1 (Q16531 whole entry partner): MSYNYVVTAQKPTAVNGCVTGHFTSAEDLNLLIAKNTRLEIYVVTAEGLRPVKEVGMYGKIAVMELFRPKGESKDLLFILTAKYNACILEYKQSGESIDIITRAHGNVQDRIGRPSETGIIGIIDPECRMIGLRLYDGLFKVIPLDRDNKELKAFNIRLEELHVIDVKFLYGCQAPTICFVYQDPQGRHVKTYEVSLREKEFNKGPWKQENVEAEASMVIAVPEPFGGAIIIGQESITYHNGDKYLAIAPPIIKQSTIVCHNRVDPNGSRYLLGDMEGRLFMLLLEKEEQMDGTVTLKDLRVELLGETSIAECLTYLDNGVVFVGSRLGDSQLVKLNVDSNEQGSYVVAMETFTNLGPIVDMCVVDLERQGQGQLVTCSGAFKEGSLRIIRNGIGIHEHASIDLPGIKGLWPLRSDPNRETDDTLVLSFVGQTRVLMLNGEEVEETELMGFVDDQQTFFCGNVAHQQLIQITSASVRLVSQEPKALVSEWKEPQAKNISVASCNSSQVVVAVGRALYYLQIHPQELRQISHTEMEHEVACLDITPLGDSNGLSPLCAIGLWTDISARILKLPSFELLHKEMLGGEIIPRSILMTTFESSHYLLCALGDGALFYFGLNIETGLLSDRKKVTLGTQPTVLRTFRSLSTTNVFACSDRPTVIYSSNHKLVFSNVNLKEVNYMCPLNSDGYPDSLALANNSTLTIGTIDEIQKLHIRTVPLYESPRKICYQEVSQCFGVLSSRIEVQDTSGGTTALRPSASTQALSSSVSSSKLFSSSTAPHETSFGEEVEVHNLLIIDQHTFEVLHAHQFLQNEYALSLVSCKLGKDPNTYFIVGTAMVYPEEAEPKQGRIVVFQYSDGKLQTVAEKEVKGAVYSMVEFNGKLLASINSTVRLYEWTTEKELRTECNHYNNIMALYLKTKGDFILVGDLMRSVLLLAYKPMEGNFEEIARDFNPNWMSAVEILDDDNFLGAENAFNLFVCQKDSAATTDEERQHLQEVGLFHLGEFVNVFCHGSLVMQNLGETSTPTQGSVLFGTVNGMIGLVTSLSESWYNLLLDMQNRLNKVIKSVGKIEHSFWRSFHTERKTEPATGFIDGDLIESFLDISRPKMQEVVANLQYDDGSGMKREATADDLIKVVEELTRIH
Chain of GSPT1 (P15170 whole entry, the tested form may be a part): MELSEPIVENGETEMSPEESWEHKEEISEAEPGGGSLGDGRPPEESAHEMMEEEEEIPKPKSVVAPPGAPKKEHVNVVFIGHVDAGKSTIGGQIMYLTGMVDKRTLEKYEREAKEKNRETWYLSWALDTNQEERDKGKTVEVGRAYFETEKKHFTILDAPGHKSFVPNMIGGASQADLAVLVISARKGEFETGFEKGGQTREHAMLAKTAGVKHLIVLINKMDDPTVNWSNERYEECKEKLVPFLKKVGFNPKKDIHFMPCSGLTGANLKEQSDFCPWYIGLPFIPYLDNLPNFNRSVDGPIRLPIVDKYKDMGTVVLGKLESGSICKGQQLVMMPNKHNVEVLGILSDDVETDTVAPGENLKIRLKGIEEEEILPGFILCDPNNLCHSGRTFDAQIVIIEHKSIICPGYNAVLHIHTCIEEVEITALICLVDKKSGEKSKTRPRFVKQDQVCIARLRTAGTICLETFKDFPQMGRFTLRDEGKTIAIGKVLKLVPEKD
Chain of GSPT1 (Q96SW2 whole entry, the tested form may be a part): as the sequence (Q96SW2 whole entry) above
Chain of GSPT1 (Q16531 whole entry partner, the tested form may be a part): as the sequence (Q16531 whole entry partner) above

For orientation: IC50 means the concentration at which inhibition is half-maximal. A lower IC50 goes with higher potency. A word on the DC50: it is the concentration at which degradation of the target reaches its halfway point. A low value points to a more potent degrader. For orientation: Dmax means the greatest extent of degradation seen. As for `COc1c(COC(=O)Nc2ccc(Oc3cc(F)c(F)cc3C)cc2)ccc2c1C(=O)N(C1CCC(=O)NC1=O)C2` (stereo not drawn) [Example 78, [2-(2,6-dioxopiperidin-3-yl)-4-methoxy-3-oxo-2,3-dihydro-1H-isoindol-5-yl]methyl N-[4-(4,5-difluoro-2-methylphenoxy)phenyl]carbamate], in the test with Phospho-Rb (Ser807/811), the midpoint of inhibition, the IC50, lay at 165 nM and the Emax came out at 126%. In addition, on GSPT1, the DC50 was greater than 14000 nM and the Dmax came to 2%. On Cyclin E1, the DC50 worked out at 316 nM, the Dmax came out at 113% and the “Ratio of GSPT1 DC50/Cyclin E1 DC50” value is given as greater than 44.

On to `CC(C)Oc1c(COC(=O)Nc2ccc(Oc3ccc(F)cc3Cl)cc2)ccc2c1C(=O)N(C1CCC(=O)NC1=O)C2` (stereo not drawn) [Example 124, [2-(2,6-dioxopiperidin-3-yl)-3-oxo-4-(propan-2-yloxy)-2,3-dihydro-1H-isoindol-5-yl]methyl N-[4-(2-chloro-4-fluorophenoxy)phenyl]carbamate], for which, in the test on Phospho-Rb (Ser807/811), 163 nM corresponded to half-maximal inhibition (IC50) and the Emax turned out to be 121%. In addition, at GSPT1, the DC50 is greater than 14000 nM and the Dmax was determined as 15%. At Cyclin E1, the half-maximal degradation concentration (DC50) is 195 nM, the Dmax was determined as 103% and the “Ratio of GSPT1 DC50/Cyclin E1 DC50” value is reported as greater than 72.

On to `COc1c(COC(=O)Nc2ccc(Oc3cc(F)c(F)c(F)c3)cc2C)ccc2c1C(=O)N(C1CCC(=O)NC1=O)C2` (stereo not drawn) [Example 40, [2-(2,6-dioxopiperidin-3-yl)-4-methoxy-3-oxo-2,3-dihydro-1H-isoindol-5-yl]methyl N-[2-methyl-4-(3,4,5-trifluorophenoxy)phenyl]carbamate], for which, in the test on Phospho-Rb (Ser807/811), the IC50 worked out at 128 nM and the Emax is 110%. On GSPT1, the DC50 is greater than 14000 nM and the Dmax stood at 9%. For the same compound, on Cyclin E1, the DC50 came out at 41 nM, the Dmax worked out at 108% and the “Ratio of GSPT1 DC50/Cyclin E1 DC50” value is greater than 339.

Take `O=C1CCC(N2Cc3ccc(COC(=O)Nc4ccc(Oc5ccc(F)c(F)c5)cc4)c(O[C@H]4CCOC4)c3C2=O)C(=O)N1` (stereo partly drawn) [Example 152, [2-(2,6-dioxopiperidin-3-yl)-3-oxo-4-[(3S)-oxolan-3-yloxy]-2,3-dihydro-1H-isoindol-5-yl]methyl N-[4-(3,4-difluorophenoxy)phenyl]carbamate]: in the test with Phospho-Rb (Ser807/811), the IC50 was 152 nM and the Emax turned out to be 120%. Moreover, on GSPT1, the DC50 was greater than 14000 nM and the Dmax was determined as 32%. Also, on Cyclin E1, the half-maximal degradation concentration (DC50) turned out to be 152 nM, the Dmax is 108% and the “Ratio of GSPT1 DC50/Cyclin E1 DC50” value was greater than 92.

Consider `COc1cc(Oc2cc(F)c(F)cc2F)ccc1NC(=O)OCc1ccc2c(c1OC)C(=O)N(C1CCC(=O)NC1=O)C2` (stereo not drawn) [Example 34, [2-(2,6-dioxopiperidin-3-yl)-4-methoxy-3-oxo-2,3-dihydro-1H-isoindol-5-yl]methyl N-[2-methoxy-4-(2,4,5-trifluorophenoxy)phenyl]carbamate], for which, in the test with Phospho-Rb (Ser807/811), the IC50 was 77 nM and the Emax turned out to be 122%. Moreover, at GSPT1, the DC50 is greater than 14000 nM and the Dmax came to 19%. In addition, on Cyclin E1, the DC50 is 194 nM, the Dmax was determined as 107% and the “Ratio of GSPT1 DC50/Cyclin E1 DC50” value is greater than 72.

As to `O=C1CCC(N2Cc3ccc(COC(=O)Nc4ccc(Oc5ccc(F)cc5F)cc4)c(O[C@@H]4CCOC4)c3C2=O)C(=O)N1` (stereo partly drawn) [Example 157, [2-(2,6-dioxopiperidin-3-yl)-3-oxo-4-[(3R)-oxolan-3-yloxy]-2,3-dihydro-1H-isoindol-5-yl]methyl N-[4-(2,4-difluorophenoxy)phenyl]carbamate], in the test on Phospho-Rb (Ser807/811), the IC50 is 65 nM and the Emax was 119%. On Cyclin E1, it took 116 nM to reach half-maximal degradation (DC50) and the Dmax was 99%.

As to `O=C1CCC(N2Cc3ccc(COC(=O)Nc4ccc(Oc5cccc(F)c5F)cc4)c(O[C@@H]4CCOC4)c3C2=O)C(=O)N1` (stereo partly drawn) [Example 156, [2-(2,6-dioxopiperidin-3-yl)-3-oxo-4-[(3R)-oxolan-3-yloxy]-2,3-dihydro-1H-isoindol-5-yl]methyl N-[4-(2,3-difluorophenoxy)phenyl]carbamate], in the test with Phospho-Rb (Ser807/811), inhibition was half-maximal at 39 nM (IC50) and the Emax is 116%. Also, at Cyclin E1, half-maximal degradation (DC50) was put at 101 nM and the Dmax is 103%.

For the compound `O=C1CCC(N2Cc3ccc(COC(=O)Nc4ccc(Oc5cccc(Cl)c5)cc4)c(O[C@@H]4CCOC4)c3C2=O)C(=O)N1` (stereo partly drawn) [Example 158, [2-(2,6-dioxopiperidin-3-yl)-3-oxo-4-[(3R)-oxolan-3-yloxy]-2,3-dihydro-1H-isoindol-5-yl]methyl N-[4-(3-chlorophenoxy)phenyl]carbamate], in the test on Phospho-Rb (Ser807/811), the IC50 turned out to be 175 nM and the Emax came out at 109%. Moreover, on Cyclin E1, half-maximal degradation (DC50) was put at 74 nM and the Dmax worked out at 104%.

`O=C1CCC(N2Cc3ccc(COC(=O)Nc4ccc(Oc5ccc(F)cc5Cl)cc4)c(O[C@@H]4CCOC4)c3C2=O)C(=O)N1` (stereo partly drawn) [Example 155, [2-(2,6-dioxopiperidin-3-yl)-3-oxo-4-[(3R)-oxolan-3-yloxy]-2,3-dihydro-1H-isoindol-5-yl]methyl N-[4-(2-chloro-4-fluorophenoxy)phenyl]carbamate]: in the test with Phospho-Rb (Ser807/811), the IC50 is 188 nM and the Emax worked out at 116%. Also, on Cyclin E1, half-maximal degradation (DC50) was put at 176 nM and the Dmax turned out to be 100%.

The values above are taken from US20250084056A1, “SUBSTITUTED OXOISOINDOLINYL PIPERIDINE-2,6-DIONE COMPOUNDS” (BRISTOL-MYERS SQUIBB COMPANY, priority 2023, published 2025).
